According to patent publication US20260378560A1, “APPROACHES TO DESIGNING AND PERFORMING COMPRESSED BIOLOGICAL EXPERIMENTS AND SYSTEMS FOR IMPLEMENTING THE SAME” (EXVIVO LABS INC., priority 2023, published 2026):

Experiments:
[1] = tested on: co-culture of three cancer cell lines; assay: Cell viability (CellTiter Glo) of compressed target pools, co-cultures of three cell lines (Target Compression); assay type: cell-based
Experimental: (§1) Total cell viability was measured for each cancer cell line using an Adenosine TriPhosphate (“ATP”) assay, and more specifically an ATP-based luminescence assay (i.e., CellTiter Glo). Each cancer drug was screened at multiple concentrations ranging from one nanomolar (nM) to ten micromolar (UM) in order to generate a dose-response curve and calculate a drug response score (“DRS”) for each cancer cell line. The DRS was calculated as a continuous function of multiple parameters of the non-linear dose-response curve, including the slope at the half-maximal effective concentration (also called “EC50”) and the top and bottom asymptotes of the dose-response curve. […] After total cell viability was measured and DRS was calculated, the DRS of each cancer cell line in the pool was deconvolved for each cancer drug.
(§2) Each pool represented a co-culture of three cell lines (“Target Compression”).

CCRF-HSB2 [2] = assay: ATP-based luminescence cell viability (CellTiter Glo), drug response score, CCRF-HSB2; details: CCRF-HSB2, screened individually (Compress: None)
JURKAT [3] = assay: ATP-based luminescence cell viability (CellTiter Glo), drug response score, JURKAT; details: screened individually (Compress: None)
CCRF-HSB2 [4] = assay: ATP-based luminescence cell viability (CellTiter Glo), drug response score, CCRF-HSB2
Excerpt: (§3) As part of a screen, a drug could be screened at different concentrations ranging from a lowest concentration to a highest concentration. In such a scenario, multiple data structures may be obtained by the screening platform 210. […] With these multiple data structures, the analysis module 218 can generate a dose-response curve that describes the magnitude of the response of the biological target, as a function of exposure to different concentrations of the drug. Further, the analysis module 218 can calculate a metric that is indicative of the response of the biological target. In the event that the biological target is one of multiple biological targets that are introduced to the pools of drugs, the metric can be used by the screening platform 210 to better understand the relative magnitude of responses. One example of a metric is drug-response score (“DRS”). DRS can be calculated as a continuous function of multiple parameters of the non-linear dose-response curve, including the slope at the half-maximal effective concentration (also called “EC50”) and the top and bottom asymptotes of the dose-response curve. DRS can be calculated as follows: […]
(§4) where y is a continuous function of the variable dose x, a is the maximal response (i.e., the top asymptote of the curve), b is the slope of the curve, c is the IC50 (i.e., half-maximal inhibitory concentration), and d is the minimal response (i.e., the bottom asymptote of the curve). Other examples of metrics include those output by sigmoidal and Hill slide functions that, like DRS, incorporate multiple aspects of the dose-response curve into a continuous function.
as §1
(§5) DRS for these anchor cell lines are bolded and italicized. Anchors can be identified based on frequency of the cell lines in pools with high DRS versus low DRS. At a high level, an anchor is predicted to be the cell line with the lowest individual DRS. In order to deconvolute individual cell line DRS values from pool DRS values, the anchor can start with an assumed DRS value of zero. Each pool can then be expressed as a polynomial of variables (cell lines in the pool) and constants (DRS value of the pool). The DRS value of each cell line can then be solved for using the anchor value and overlapping polynomial expressions. When multiple values are calculated for the final target solved from the polynomials, then the anchor has a non-zero value that can be determined based on the difference in the calculated value of the final target.
as §2

REH = assay: ATP-based luminescence cell viability (CellTiter Glo), drug response score, REH; parameters: scale not given here
NALM-6 = assay: ATP-based luminescence cell viability (CellTiter Glo), drug response score, NALM-6
Excerpt: as §3, §4, §1, §5, §2

CCRF-CFM [5] = assay: ATP-based luminescence cell viability (CellTiter Glo), drug response score, CCRF-CFM; parameters: scale not given here
[6] = tested on: pooled samples of three cancer cell lines; assay: Cell viability (CellTiter Glo) of compressed pooled samples of three individually cultured cell lines (Sample Compression); assay type: cell-based
Experimental: as §1
A benefit of the compression methodology is the ability to compress members of a library into pools for co-culture screens or compress individual cell cultures into pooled samples for measurement. For example, leukemia cell lines can interact in co-cultures through their immune receptors, which may result in cell activation, cytokine production, and other effects that may impact drug sensitivity and resistance. […] Instead of creating compressed target cells in pooled co-cultures, compression was instead used to enable individual cultures of each cell line, with pooled measurements to reduce reagents and instrument time. With individual cultures and sample compression, it was possible to accurately deconvolute DRS for each drug on each cell line, as shown in Table IV.

SUP-B15 [7] = assay: ATP-based luminescence cell viability (CellTiter Glo), drug response score, SUP-B15; parameters: scale not given here
Excerpt: as §3, §4, §1, §5, §2

CCRF-CFM [8] = assay: ATP-based luminescence cell viability (CellTiter Glo), drug response score, CCRF-CFM; parameters: scale not given here; details: Target compression
Excerpt: as §3, §4, §1, §5, §2

SUP-B15 [9] = assay: ATP-based luminescence cell viability (CellTiter Glo), drug response score, SUP-B15; parameters: scale not given here; details: SUP-B15, screened individually (Compress: None)
JURKAT [10] = assay: ATP-based luminescence cell viability (CellTiter Glo), drug response score, JURKAT; details: Target compression
Excerpt: as §3, §4, §1, §5, §2

[11] = 5 Pick 3, Pool 1 (REH, SUP-B15, CCRF-CFM)
[12] = 5 Pick 3, Pool 2 (SUP-B15, CCRF-HSB2, MOLT-4)
[13] = 5 Pick 3, Pool 3 (SUP-B15, CCRF-CFM, CCRF-HSB2)
[14] = 5 Pick 3, Pool 4 (REH, CCRF-CFM, MOLT-4)
[15] = 5 Pick 3, Pool 5 (REH, CCRF-HSB2, MOLT-4)
[16] = Sample compression, 5 Pick 3 pools
[17] = screened individually (Compress: None)

## COc1c(OCCCN2CCOCC2)ccc2c1N=C(NC(=O)c1cnc(N)nc1)N1CCN=C21 [Copanlisib]
[1]; [11]
  DRS of pool: 10.53
[1]; [12]
  DRS of pool: 6.47
[1]; [13]
  DRS of pool: 8.68
[1]; [14]
  DRS of pool: 13.21
[1]; [15]
  DRS of pool: 10.79
[1]; 6 Pick 3, Pool 1 (REH, CCRF-CFM, MOLT-4)
  DRS of pool: 12.63
[1]; 6 Pick 3, Pool 2 (REH, CCRF-HSB2, MOLT-4)
  DRS of pool: 9.99
[1]; 6 Pick 3, Pool 3 (REH, CCRF-CFM, JURKAT)
  DRS of pool: 9.72
[1]; 6 Pick 3, Pool 4 (SUP-B15, CCRF-HSB2, JURKAT)
  DRS of pool: 6.40
[1]; 6 Pick 3, Pool 5 (SUP-B15, CCRF-CFM, JURKAT)
  DRS of pool: 6.40
[1]; 6 Pick 3, Pool 6 (SUP-B15, CCRF-HSB2, MOLT-4)
  DRS of pool: 6.47
[1]; 7 Pick 3, Pool 1 (SUP-B15, CCRF-CFM, JURKAT)
  DRS of pool: 6.55
[1]; 7 Pick 3, Pool 2 (SUP-B15, CCRF-HSB2, NALM-6)
  DRS of pool: 7.58
[1]; 7 Pick 3, Pool 3 (SUP-B15, CCRF-CFM, NALM-6)
  DRS of pool: 10.22
[1]; 7 Pick 3, Pool 4 (REH, CCRF-HSB2, JURKAT)
  DRS of pool: 7.17
[1]; 7 Pick 3, Pool 5 (REH, MOLT-4, NALM-6)
  DRS of pool: 11.88
[1]; 7 Pick 3, Pool 6 (REH, MOLT-4, JURKAT)
  DRS of pool: 8.07
[1]; 7 Pick 3, Pool 7 (CCRF-CFM, CCRF-HSB2, MOLT-4)
  DRS of pool: 10.65
CCRF-HSB2 [2]
  drug response score (DRS): 6.94
JURKAT [3]
  drug response score (DRS): 1.34
CCRF-HSB2 [4]; CCRF-HSB2, Sample compression, 5 Pick 3 pools
  DRS from deconvolution: 7.35
CCRF-HSB2 [4]; CCRF-HSB2, Target compression, 5 Pick 3 pools
  DRS from deconvolution: 7.82
CCRF-HSB2 [4]; CCRF-HSB2, Target compression, 6 Pick 3 pools
  DRS from deconvolution: 7.97
CCRF-HSB2 [4]; CCRF-HSB2, Target compression, 7 Pick 3 pools
  DRS from deconvolution: 7.10
REH; [16]
  DRS from deconvolution: 12.99
REH; [17]
  drug response score (DRS): 13.24
NALM-6; NALM-6, Target compression, 7 Pick 3 pools
  DRS from deconvolution: 13.74
NALM-6; NALM-6, screened individually (Compress: None)
  drug response score (DRS): 13.14
CCRF-CFM [5]; [16]
  DRS from deconvolution: 15.72
CCRF-CFM [5]; [17]
  drug response score (DRS): 15.14
[6]; [11]
  DRS of pool: 10.47
[6]; [12]
  DRS of pool: 6.63
[6]; [13]
  DRS of pool: 8.39
[6]; [14]
  DRS of pool: 13.65
[6]; [15]
  DRS of pool: 10.96
SUP-B15 [7]; SUP-B15, Sample compression, 5 Pick 3 pools
  DRS from deconvolution: 1.80
SUP-B15 [7]; SUP-B15, Target compression, 5 Pick 3 pools
  DRS from deconvolution: 1.98
SUP-B15 [7]; SUP-B15, Target compression, 6 Pick 3 pools
  DRS from deconvolution: 3.00
SUP-B15 [7]; SUP-B15, Target compression, 7 Pick 3 pools
  DRS from deconvolution: 1.91
CCRF-CFM [8]; 5 Pick 3 pools
  DRS from deconvolution: 15.66
CCRF-CFM [8]; 6 Pick 3 pools
  DRS from deconvolution: 15.88
CCRF-CFM [8]; 7 Pick 3 pools
  DRS from deconvolution: 15.03
SUP-B15 [9]
  drug response score (DRS): 2.84
JURKAT [10]; 6 Pick 3 pools
  DRS from deconvolution: 0.00
JURKAT [10]; 7 Pick 3 pools
  DRS from deconvolution: 2.30
